Laboratory results reported in PMC5224920, “Assessing the mechanism and therapeutic potential of modulators of the human Mediator complex-associated protein kinases” (eLife, 2016).

System: 12 single or co-culture in vitro tissue models of primary cells
Assay: Culture/co-culture cell model panel, extracellular biomarkers (DiscoveRx); as to CCL2/MCP-1: reference of the scale not given here; as to CXCL8/IL-8: reference of the scale not given here; as to CXCL9/MIG: reference of the scale not given here; as to M-CSF: reference of the scale not given here; as to PBMC Cytotoxicity: reference of the scale not given here; as to SRB: reference of the scale not given here; as to sTNF-alpha: reference of the scale not given here
Format: cell-based, human
Conditions: for sTNF-alpha / B cell Proliferation / PBMC Cytotoxicity / Secreted IgG / sIL-2 / sIL-6 / sIL-17A / sIL-17F: BT; for CCL2/MCP-1 / CD54/ICAM-1 / CD106/VCAM-1 / CXCL8/IL-8 / CXCL9/MIG / CXCL10/IP-10 / CXCL11/I-TAC / Collagen I / Collagen III / EGFR / M-CSF / MMP-1 / PAI-I / Proliferation_72hr / SRB / TIMP-1 / TIMP-2: HDF3CGF stimulated fibroblasts

In the case of `Cc1n[nH]c2ncc(C(=O)N3CCC[C@H]3c3ccc(Cl)cc3)cc12` [CMPD4], the sTNF-alpha (1.00E4 nM) is reported as 0.086, the “B cell Proliferation” value (1.11E3 nM) is reported as 0.005 and the “PBMC Cytotoxicity” value (1.11E3 nM) is reported as 0.008. The “Secreted IgG” value (1.11E3 nM) was -0.271, the sIL-2 (1.11E3 nM) was -0.010 and the sIL-6 (1.11E3 nM) was 0.011. It also gave a sIL-17A (1.11E3 nM) of 0.280, a sIL-17F (1.11E3 nM) of -0.402 and a sTNF-alpha (1.11E3 nM) of 0.063. For the same compound, the “B cell Proliferation” value (1.23E2 nM) was 0.027, the “PBMC Cytotoxicity” value (1.23E2 nM) was 0.018 and the “Secreted IgG” value (1.23E2 nM) was -0.256. It also gave a sIL-2 (1.23E2 nM) of 0.014, a sIL-6 (1.23E2 nM) of 0.030 and a sIL-17A (1.23E2 nM) of 0.185. For the same compound, the sIL-17F (1.23E2 nM) was -0.282, the sTNF-alpha (1.23E2 nM) was 0.057 and the “B cell Proliferation” value (1.37E1 nM) was -0.012. The “PBMC Cytotoxicity” value (1.37E1 nM) was 0.011, the “Secreted IgG” value (1.37E1 nM) was -0.141 and the sIL-2 (1.37E1 nM) was 0.014. It also gave a sIL-6 (1.37E1 nM) of 0.027, a sIL-17A (1.37E1 nM) of 0.187 and a sIL-17F (1.37E1 nM) of -0.0019. The sTNF-alpha (1.37E1 nM) was 0.046, the “B cell Proliferation” value (3.33E3 nM) was -0.018 and the “PBMC Cytotoxicity” value (3.33E3 nM) was -0.00188. The “Secreted IgG” value (3.33E3 nM) was -0.298, the sIL-2 (3.33E3 nM) was -0.066 and the sIL-6 (3.33E3 nM) was 0.010. It also gave a sIL-17A (3.33E3 nM) of 0.312, a sIL-17F (3.33E3 nM) of -0.374 and a sTNF-alpha (3.33E3 nM) of 0.093. The “B cell Proliferation” value (3.70E2 nM) was -0.072, the “PBMC Cytotoxicity” value (3.70E2 nM) was -0.003 and the “Secreted IgG” value (3.70E2 nM) was -0.278. The sIL-2 (3.70E2 nM) was -0.005, the sIL-6 (3.70E2 nM) was -0.000869 and the sIL-17A (3.70E2 nM) was 0.240. The sIL-17F (3.70E2 nM) was -0.290, the sTNF-alpha (3.70E2 nM) was 0.057 and the “B cell Proliferation” value (4.12E1 nM) was -0.040. For the same compound, the “PBMC Cytotoxicity” value (4.12E1 nM) was -0.011, the “Secreted IgG” value (4.12E1 nM) was -0.161 and the sIL-2 (4.12E1 nM) was 0.032. It also gave a sIL-6 (4.12E1 nM) of 0.045, a sIL-17A (4.12E1 nM) of 0.263 and a sIL-17F (4.12E1 nM) of -0.163. For the same compound, the sTNF-alpha (4.12E1 nM) was 0.025, the “B cell Proliferation” value (4.57E0 nM) was 0.00188 and the “PBMC Cytotoxicity” value (4.57E0 nM) was 0.009. For the same compound, the “Secreted IgG” value (4.57E0 nM) was 0.00642, the sIL-2 (4.57E0 nM) was 0.059 and the sIL-6 (4.57E0 nM) was -0.013. It also gave a sIL-17A (4.57E0 nM) of 0.029, a sIL-17F (4.57E0 nM) of -0.027 and a sTNF-alpha (4.57E0 nM) of 0.044. For the same compound, the CCL2/MCP-1 (1.00E4 nM) was -0.062, the CD54/ICAM-1 (1.00E4 nM) was -0.066 and the CD106/VCAM-1 (1.00E4 nM) was 0.015. The CXCL8/IL-8 (1.00E4 nM) was -0.071, the CXCL9/MIG (1.00E4 nM) was -0.035 and the CXCL10/IP-10 (1.00E4 nM) was 0.016. For the same compound, the CXCL11/I-TAC (1.00E4 nM) was -0.012, the “Collagen I” value (1.00E4 nM) was 0.017 and the “Collagen III” value (1.00E4 nM) was 0.028. For the same compound, the EGFR (1.00E4 nM) was -0.096, the M-CSF (1.00E4 nM) was -0.031 and the MMP-1 (1.00E4 nM) was -0.059. It also gave a PAI-I (1.00E4 nM) of -0.088, a Proliferation_72hr (1.00E4 nM) of -0.248 and an SRB (1.00E4 nM) of -0.00367. For the same compound, the TIMP-1 (1.00E4 nM) was -0.111, the TIMP-2 (1.00E4 nM) was -0.065 and the CCL2/MCP-1 (1.11E3 nM) was -0.100. For the same compound, the CD54/ICAM-1 (1.11E3 nM) was -0.070, the CD106/VCAM-1 (1.11E3 nM) was 0.050 and the CXCL8/IL-8 (1.11E3 nM) was -0.111. The CXCL9/MIG (1.11E3 nM) was -0.045, the CXCL10/IP-10 (1.11E3 nM) was 0.029 and the CXCL11/I-TAC (1.11E3 nM) was -0.023. The “Collagen I” value (1.11E3 nM) was -0.003, the “Collagen III” value (1.11E3 nM) was 0.052 and the EGFR (1.11E3 nM) was -0.103. It also gave a M-CSF (1.11E3 nM) of -0.041, an MMP-1 (1.11E3 nM) of -0.071 and a PAI-I (1.11E3 nM) of -0.065. The Proliferation_72hr (1.11E3 nM) was -0.244, the SRB (1.11E3 nM) was -0.002 and the TIMP-1 (1.11E3 nM) was -0.078. It also gave a TIMP-2 (1.11E3 nM) of 0.064, a CCL2/MCP-1 (1.23E2 nM) of -0.076 and a CD54/ICAM-1 (1.23E2 nM) of -0.078. The CD106/VCAM-1 (1.23E2 nM) was 0.069, the CXCL8/IL-8 (1.23E2 nM) was -0.081 and the CXCL9/MIG (1.23E2 nM) was -0.042. For the same compound, the CXCL10/IP-10 (1.23E2 nM) was 0.037, the CXCL11/I-TAC (1.23E2 nM) was -0.032 and the “Collagen I” value (1.23E2 nM) was 0.025. The “Collagen III” value (1.23E2 nM) was 0.068, the EGFR (1.23E2 nM) was -0.097 and the M-CSF (1.23E2 nM) was -0.068. The MMP-1 (1.23E2 nM) was -0.042, the PAI-I (1.23E2 nM) was -0.031 and the Proliferation_72hr (1.23E2 nM) was -0.191. For the same compound, the SRB (1.23E2 nM) was 0.024, the TIMP-1 (1.23E2 nM) was -0.068 and the TIMP-2 (1.23E2 nM) was 0.076. It also gave a CCL2/MCP-1 (1.37E1 nM) of -0.043, a CD54/ICAM-1 (1.37E1 nM) of -0.058 and a CD106/VCAM-1 (1.37E1 nM) of 0.069. For the same compound, the CXCL8/IL-8 (1.37E1 nM) was -0.024, the CXCL9/MIG (1.37E1 nM) was -0.012 and the CXCL10/IP-10 (1.37E1 nM) was 0.038. For the same compound, the CXCL11/I-TAC (1.37E1 nM) was -0.002, the “Collagen I” value (1.37E1 nM) was 0.048 and the “Collagen III” value (1.37E1 nM) was 0.094. The EGFR (1.37E1 nM) was -0.067, the M-CSF (1.37E1 nM) was -0.052 and the MMP-1 (1.37E1 nM) was 0.006. It also gave a PAI-I (1.37E1 nM) of 0.00043, a Proliferation_72hr (1.37E1 nM) of -0.130 and an SRB (1.37E1 nM) of 0.016. The TIMP-1 (1.37E1 nM) was -0.033, the TIMP-2 (1.37E1 nM) was 0.049 and the CCL2/MCP-1 (3.33E3 nM) was -0.117. It also gave a CD54/ICAM-1 (3.33E3 nM) of -0.064, a CD106/VCAM-1 (3.33E3 nM) of 0.050 and a CXCL8/IL-8 (3.33E3 nM) of -0.103. It also gave a CXCL9/MIG (3.33E3 nM) of -0.054, a CXCL10/IP-10 (3.33E3 nM) of 0.032 and a CXCL11/I-TAC (3.33E3 nM) of -0.022. The “Collagen I” value (3.33E3 nM) was 0.006, the “Collagen III” value (3.33E3 nM) was 0.051 and the EGFR (3.33E3 nM) was -0.111. It also gave a M-CSF (3.33E3 nM) of -0.031, an MMP-1 (3.33E3 nM) of -0.057 and a PAI-I (3.33E3 nM) of -0.062. The Proliferation_72hr (3.33E3 nM) was -0.194, the SRB (3.33E3 nM) was -0.008 and the TIMP-1 (3.33E3 nM) was -0.075. It also gave a TIMP-2 (3.33E3 nM) of -0.041, a CCL2/MCP-1 (3.70E2 nM) of -0.066 and a CD54/ICAM-1 (3.70E2 nM) of -0.075. It also gave a CD106/VCAM-1 (3.70E2 nM) of 0.067, a CXCL8/IL-8 (3.70E2 nM) of -0.100 and a CXCL9/MIG (3.70E2 nM) of -0.034. For the same compound, the CXCL10/IP-10 (3.70E2 nM) was 0.040, the CXCL11/I-TAC (3.70E2 nM) was -0.017 and the “Collagen I” value (3.70E2 nM) was 0.018. For the same compound, the “Collagen III” value (3.70E2 nM) was 0.066, the EGFR (3.70E2 nM) was -0.123 and the M-CSF (3.70E2 nM) was -0.056. For the same compound, the MMP-1 (3.70E2 nM) was -0.053, the PAI-I (3.70E2 nM) was -0.013 and the Proliferation_72hr (3.70E2 nM) was -0.187. For the same compound, the SRB (3.70E2 nM) was 0.021, the TIMP-1 (3.70E2 nM) was -0.069 and the TIMP-2 (3.70E2 nM) was 0.123. The CCL2/MCP-1 (4.12E1 nM) was -0.141, the CD54/ICAM-1 (4.12E1 nM) was -0.066 and the CD106/VCAM-1 (4.12E1 nM) was 0.066. The CXCL8/IL-8 (4.12E1 nM) was -0.049.
